From patent US11951088B2, “Fatty acid analogs and their use in the treatment of conditions related to metabolic syndrome” (Epitracker, Inc., priority 2017, dated 2024)
Like-named read-outs stand apart in the source and are kept apart here.

Columns and labels:
[1] = system: C57BL/6J mice fed a high fat diet; experiment: diet-induced obese mice treated daily by gastric gavage for 12 weeks; type: in vivo
Procedure: Forty C57BL/6J mice were fed a high fat diet (HFD) (D12492, 60% kcals fat) for 8 weeks. Study mice were then divided into the following four groups of ten: vehicle controls, low dose C17:0-treated (5 mg/kg body weight), high-dose C17:0-treated (50 mg/kg body weight), and low-dose C15:0-treated (5 mg/kg body weight).
Table 1 provides comparisons of cardiometabolic effects in diet-induced obese mice treated daily with oral pentadecanoic acid (5 mg/kg BW), heptadecanoic acid (5 and 50 mg/kg BW) for 12 weeks compared to vehicle controls. “Results” values are based on 6 h fasted samples.

[2] = system: New Zealand white rabbits fed a high fat diet; experiment: diet-induced rabbit model for metabolic syndrome-associated dyslipidemia, anemia, liver iron overload and steatohepatitis; type: in vivo; conditions: Day 76
Text: This study further assessed the efficacy of treating diseases associated with metabolic syndrome, including dyslipidemia, inflammation, anemia, liver iron overload and nonalcoholic steatohepatitis, using an oral odd-chain saturated fatty acid. Sixteen New Zealand white rabbits were fed a high fat diet (HFD) (4% peanut oil and 0.5% cholesterol) for 2 weeks. Eight additional rabbits were maintained on a baseline diet. Study rabbits were then divided into the following three groups of eight: baseline diet controls, HFD controls, and C15:0-treated (35 mg/kg body weight) cases. The test article was a synthetic powder stable at room temperature and purchased from Sigma-Aldrich (Products W433400 (≥99% C15:0). The test article was provided daily in the diet for 11 weeks (76 days) while continuing ad libitum access to the HFD (HFD controls and treated groups) or baseline diet (baseline diet controls). Body weight and food intake were measured weekly. Plasma clinical chemistries and red blood cell indices, as well as iron deposition and fibrosis in the liver, were assessed at Day 76. Data from the treated group were compared to the control groups using Wilcoxon rank sum analyses. […].
Table 2 provides comparisons of clinical effects from a diet-induced rabbit model for metabolic syndrome-associated dyslipidemia, inflammation, and hemolytic anemia, including a case group treated daily with oral pentadecanoic acid (C15:0) (35 mg/kg BW) for 11 weeks.
Table 3 provides comparisons of effects on liver histology in a diet-induced rabbit model for metabolic syndrome-associated liver iron overload and nonalcoholic steatohepatitis, including a case group treated daily with oral pentadecanoic acid (C15:0) (35 mg/kg BW) for 11 weeks.

[3] = 24-hour plasma pharmacokinetics after single oral dose in rats; type: in vivo; conditions: for bioavailability: po, 35 mg/kg
human PPAR-α = molecular target: T1, human PPAR-α (Homo sapiens, UniProt Q07869); experiment: PathHunter NHR Protein Interaction assay, PPAR-α agonist activity (CHO cells); conditions: PPAR-alpha; Table 4
T1 sequence (Q07869 1-468): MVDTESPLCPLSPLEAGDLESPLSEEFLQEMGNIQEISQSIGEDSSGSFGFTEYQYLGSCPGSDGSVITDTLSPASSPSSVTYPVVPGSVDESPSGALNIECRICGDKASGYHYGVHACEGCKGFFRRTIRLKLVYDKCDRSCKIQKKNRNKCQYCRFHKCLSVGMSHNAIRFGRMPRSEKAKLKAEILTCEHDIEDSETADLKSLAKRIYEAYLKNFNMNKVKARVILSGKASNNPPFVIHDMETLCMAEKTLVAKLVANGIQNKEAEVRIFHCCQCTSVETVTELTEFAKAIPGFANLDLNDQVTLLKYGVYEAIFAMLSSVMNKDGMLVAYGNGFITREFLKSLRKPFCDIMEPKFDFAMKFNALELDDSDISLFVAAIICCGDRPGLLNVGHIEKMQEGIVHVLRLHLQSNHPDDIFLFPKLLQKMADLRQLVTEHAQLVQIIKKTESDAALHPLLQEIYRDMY
Procedure: (§1) PPAR-α, PPAR-δ, and PPAR-γ agonist activities were measured using PathHunter Nuclear Hormone Receptor (NHR) Protein Interaction (Pro) assays (DiscoverX, Freemont, California). Briefly, Chinese hamster ovary (CHO) cell lines were used to monitor the activation of PPAR-α, PPAR-δ, and PPAR-γ in a homogenous, non-imaging assay format using Enzyme Fragment Complementation (EFC). The NHR Pro assay was based on detection of protein-protein interactions between activated, full length PPAR-α, PPAR-δ, and PPAR-γ proteins and a nuclear fusion protein containing Steroid Receptor Co-activator Peptide (SRCP) domains with one or more canonical LXXLL interaction motifs. PPAR-α, PPAR-δ, and PPAR-γ were tagged with the ProLink component of the EFC assay system, and the SRCP domain was fused to the enzyme acceptor component (EA) expressed in the nucleus. When bound by ligand, PPAR-α, PPAR-δ, or PPAR-γ migrated to the nucleus and recruited the SRCP domain, whereby complementation occurred, generating a unit of active β-Galactosidase (β-Gal) and production of chemiluminescent signal. […] Percentage activity was calculated using the following formula: % Activity=100%×(mean RLU of test sample−mean RLU of vehicle control)/(mean MAX control ligand−mean RLU of vehicle control).

human PPAR-δ = molecular target: T2, human PPAR-δ (Homo sapiens, UniProt Q03181); experiment: PathHunter NHR Protein Interaction assay, PPAR-δ agonist activity (CHO cells)
T2 sequence (Q03181 1-441): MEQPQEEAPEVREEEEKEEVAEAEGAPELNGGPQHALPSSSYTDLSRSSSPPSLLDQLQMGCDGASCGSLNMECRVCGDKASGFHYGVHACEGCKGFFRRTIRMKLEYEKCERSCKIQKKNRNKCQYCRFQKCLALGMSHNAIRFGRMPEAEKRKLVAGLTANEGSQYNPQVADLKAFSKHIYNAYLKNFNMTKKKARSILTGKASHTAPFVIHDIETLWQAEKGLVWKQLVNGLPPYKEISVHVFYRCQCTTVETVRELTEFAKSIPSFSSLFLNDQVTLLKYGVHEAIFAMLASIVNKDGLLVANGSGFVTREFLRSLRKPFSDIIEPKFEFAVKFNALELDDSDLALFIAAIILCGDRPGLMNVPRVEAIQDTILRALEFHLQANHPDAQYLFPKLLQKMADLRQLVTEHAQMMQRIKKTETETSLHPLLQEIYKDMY
Procedure: as §1

human PPAR-γ = molecular target: T3, human PPAR-γ (Homo sapiens, UniProt P37231); experiment: PathHunter NHR Protein Interaction assay, PPAR-γ agonist activity (CHO cells)
T3 sequence (P37231 1-505): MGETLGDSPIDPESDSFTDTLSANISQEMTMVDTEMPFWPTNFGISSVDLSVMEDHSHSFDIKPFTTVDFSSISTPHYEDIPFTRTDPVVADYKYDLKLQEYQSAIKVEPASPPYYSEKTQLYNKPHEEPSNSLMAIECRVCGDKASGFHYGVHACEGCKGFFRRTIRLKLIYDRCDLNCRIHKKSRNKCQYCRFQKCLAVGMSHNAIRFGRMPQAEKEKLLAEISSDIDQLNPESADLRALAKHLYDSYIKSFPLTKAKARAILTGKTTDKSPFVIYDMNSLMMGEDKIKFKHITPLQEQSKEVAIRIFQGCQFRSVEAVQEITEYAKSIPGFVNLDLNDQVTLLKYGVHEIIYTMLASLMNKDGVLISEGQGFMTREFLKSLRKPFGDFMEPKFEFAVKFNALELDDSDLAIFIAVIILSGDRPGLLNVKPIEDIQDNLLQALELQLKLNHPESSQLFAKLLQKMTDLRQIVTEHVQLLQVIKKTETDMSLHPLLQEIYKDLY
Procedure: as §1

[4] = Day 84, 6 h fasted, 5 mg/kg daily oral

SMILES: CCCCCCCCCCCCCCC(=O)O [C15:0, pentadecanoic acid]
- metabolic syndrome compared to vehicle controls (in words) ([1]; 12 weeks daily oral, C15:0 5 mg/kg, C17:0 5 and 50 mg/kg): attenuated metabolic syndrome
- Cholesterol [1, 4]: 183 ± 25 mg/dL
- Glucose [1, 4]: 245 ± 37 mg/dL
- IL-6 [1, 4]: 19 ± 11 pg/mL
- Insulin [1, 4]: 4.9 ± 3.8 ng/mL
- LDL-C [1, 4]: 6 ± 4 mg/dL
- MCP-1 [1, 4]: 52 ± 25 pg/mL
- TNF-α [1, 4]: 1.6 ± 1.0 pg/mL
- clinical effects compared to the HFD controls (in words) ([2]; 35 mg/kg): attenuated anemia, liver iron deposition, and liver fibrosis
- Hematocrit ([2]; 35 mg/kg/day in HFD): 38 ± 4%
- Hemoglobin ([2]; 35 mg/kg/day in HFD): 14 ± 1 G/dl
- Mean cell hemoglobin ([2]; 35 mg/kg/day in HFD): 23 ± 1 pg
- Mean cell volume ([2]; 35 mg/kg/day in HFD): 64 ± 2 fL
- Nucleated red blood cells ([2]; 35 mg/kg/day in HFD): 8 ± 1 10^3/ul
- Platelets ([2]; 35 mg/kg/day in HFD): 485 ± 87 10^3/ul
- Red blood cell distribution width ([2]; 35 mg/kg/day in HFD): 15 ± 1%
- Red blood cells ([2]; 35 mg/kg/day in HFD): 6.0 ± 0.7 10^6/ul
- Cholesterol ([2]; plasma, 35 mg/kg/day in HFD): 2516 ± 746 mg/dL
- Globulins ([2]; plasma, 35 mg/kg/day in HFD): 1.3 ± 0.7 G/dl
- Lipemia ([2]; plasma, 35 mg/kg/day in HFD): 341 ± 243 mg/dL
- Triglycerides ([2]; plasma, 35 mg/kg/day in HFD): 235 ± 132 mg/dL
- Cmin ([3]; 35 mg/kg single oral dose): 700 ng/mL
- Tlast ([3]; 35 mg/kg single oral dose): 24 h
- AUC(0-t) ([3]; rat, 35 mg/kg single oral dose): 46400 ng·h/mL
- Tmax ([3]; rat, 35 mg/kg single oral dose): 1 h
- Cmax ([3]; rat, 35 mg/kg single oral dose, deuterated form): 4980 ng/mL
- bioavailability ([3]; rat, 35 mg/kg single oral dose, estimate using an AUC of 15 for a 1 mg/kg IV arm, read-out: % F): 8.83%
- bioavailability ([3]; rat, oral, rats, read-out: estimated plasma % F (bioavailability)): 9%
- EC50 (human PPAR-α): 11.5 µM
- PPAR-delta agonist activity (in words) (human PPAR-δ): partial PPAR delta agonist
- EC50 (human PPAR-γ): > 100 µM
- EC50 (human PPAR-γ; read-out: Half Maximal Effective Concentration (EC50), PPAR-γ, Table 5): > 100 µM
